Source: US20070173462A1, “Treatment of diseases associated with the use of antibiotics” (Optimer Pharmaceuticals, Inc., priority 2004, published 2007)
Like-named read-outs stand apart in the source and are kept apart here.

Key:
C. difficile = assay: MIC via agar dilution, 110 genetically distinct clinical isolates of C. difficile; format: cell-based
toxigenic C. difficile = assay: Hamster model of clindamycin-induced Clostridium difficile associated diarrhea/colitis; format: in vivo, Syrian hamsters; settings: oral treatment for 7 days; untreated infection uniformly fatal between days two and six
Procedure: Animals were treated with two oral doses of clindamycin at 100 mg/kg. Three days after the second dose of clindamycin, they were inoculated with toxigenic C. difficile spores. […] Animals were observed daily for the presence or absence of diarrhea. Necropsies were performed on some animals that died during the experiment, and cecal contents were assayed for C. difficile toxin A. Hamsters were monitored for 20 days, and the cumulative mortality during this period was recorded (FIG. 1).

Cc1ncc([N+](=O)[O-])n1CCO [Metronidazole]
protected the animals from infection: protection from infection (cumulative mortality over 20 days) (toxigenic C. difficile)
0.025 µg/mL: MIC (C. difficile; Clostridioides difficile, isolate ORG ID CJ1 893, read-out: MIC)
0.15 µg/mL: MIC (C. difficile; Clostridioides difficile, 110 clinical isolates, agar dilution, read-out: Geometric Mean (MIC))
0.5 µg/mL: MIC (C. difficile; Clostridioides difficile, isolate ORG ID 89 6336, read-out: MIC) | MIC (C. difficile; Clostridioides difficile, isolate ORG ID 98 6350, read-out: MIC) | MIC (C. difficile; Clostridioides difficile, isolate ORG ID W1 3931, read-out: MIC)
0.06 µg/mL: MIC (C. difficile; Clostridioides difficile, isolate ORG ID 94 6343, read-out: MIC) | MIC (C. difficile; Clostridioides difficile, isolate ORG ID 101 6354, read-out: MIC) | MIC (C. difficile; Clostridioides difficile, isolate ORG ID BH1 4506, read-out: MIC)
0.03 µg/mL: MIC (C. difficile; Clostridioides difficile, isolate ORG ID 78 6392, read-out: MIC) | MIC (C. difficile; Clostridioides difficile, isolate ORG ID 82 6329, read-out: MIC)
0.025 to 0.5 µg/mL: Range (MIC) (C. difficile; 110 clinical isolates, agar dilution)
0.25 µg/mL: MIC (C. difficile; Clostridioides difficile, isolate ORG ID 61 5930, read-out: MIC) | MIC (C. difficile; Clostridioides difficile, isolate ORG ID 63 6029, read-out: MIC) | MIC (C. difficile; Clostridioides difficile, isolate ORG ID 64 5940, read-out: MIC) | MIC (C. difficile; Clostridioides difficile, isolate ORG ID 65 5967, read-out: MIC) | MIC (C. difficile; Clostridioides difficile, isolate ORG ID 67 6367, read-out: MIC) | MIC (C. difficile; Clostridioides difficile, isolate ORG ID 69 6370, read-out: MIC) | MIC (C. difficile; Clostridioides difficile, isolate ORG ID 70 6376, read-out: MIC) | MIC (C. difficile; Clostridioides difficile, isolate ORG ID 71 6379, read-out: MIC) | MIC (C. difficile; Clostridioides difficile, isolate ORG ID 72 6380, read-out: MIC) | MIC (C. difficile; Clostridioides difficile, isolate ORG ID 73 6382, read-out: MIC) | MIC (C. difficile; Clostridioides difficile, isolate ORG ID 76 6389, read-out: MIC) | MIC (C. difficile; Clostridioides difficile, isolate ORG ID 84 6331, read-out: MIC) | MIC (C. difficile; Clostridioides difficile, isolate ORG ID 88 6335, read-out: MIC) | MIC (C. difficile; Clostridioides difficile, isolate ORG ID 100 6353, read-out: MIC) | MIC (C. difficile; Clostridioides difficile, isolate ORG ID 104 6060, read-out: MIC) | MIC (C. difficile; Clostridioides difficile, isolate ORG ID 106 6078, read-out: MIC) | MIC (C. difficile; Clostridioides difficile, isolate ORG ID 115 5985, read-out: MIC) | MIC (C. difficile; Clostridioides difficile, isolate ORG ID 120 6057, read-out: MIC) | MIC (C. difficile; Clostridioides difficile, isolate ORG ID 121 6072, read-out: MIC) | MIC (C. difficile; Clostridioides difficile, isolate ORG ID 122 6111, read-out: MIC) | MIC (C. difficile; Clostridioides difficile, isolate ORG ID A1 1535, read-out: MIC) | MIC (C. difficile; Clostridioides difficile, isolate ORG ID AH1 3430, read-out: MIC) | MIC (C. difficile; Clostridioides difficile, isolate ORG ID BE1 4307, read-out: MIC) | MIC (C. difficile; Clostridioides difficile, isolate ORG ID BN1 1322, read-out: MIC) | MIC (C. difficile; Clostridioides difficile, isolate ORG ID BV1 1183, read-out: MIC) | MIC (C. difficile; Clostridioides difficile, isolate ORG ID BX1 4271, read-out: MIC) | MIC (C. difficile; Clostridioides difficile, isolate ORG ID CN1 667, read-out: MIC) | MIC (C. difficile; Clostridioides difficile, isolate ORG ID CP1 5491, read-out: MIC) | MIC (C. difficile; Clostridioides difficile, isolate ORG ID D1 1360, read-out: MIC) | MIC (C. difficile; Clostridioides difficile, isolate ORG ID J1 5971, read-out: MIC) | MIC (C. difficile; Clostridioides difficile, isolate ORG ID K1 4305, read-out: MIC) | MIC (C. difficile; Clostridioides difficile, isolate ORG ID R6 6015, read-out: MIC) | MIC90 (C. difficile; Clostridioides difficile, 110 clinical isolates, agar dilution)
